The target of one assay is Cholinesterase (Homo sapiens, UniProt P06276).
The next assay has as its target Acetylcholinesterase (Homo sapiens, UniProt P22303).

The values that follow come from ChEMBL document CHEMBL1148525, “Discovery of huperzine A-tacrine hybrids as potent inhibitors of human cholinesterases targeting their midgorge recognition sites” (J Med Chem, 2006).

Sequence of Cholinesterase (P06276 whole entry): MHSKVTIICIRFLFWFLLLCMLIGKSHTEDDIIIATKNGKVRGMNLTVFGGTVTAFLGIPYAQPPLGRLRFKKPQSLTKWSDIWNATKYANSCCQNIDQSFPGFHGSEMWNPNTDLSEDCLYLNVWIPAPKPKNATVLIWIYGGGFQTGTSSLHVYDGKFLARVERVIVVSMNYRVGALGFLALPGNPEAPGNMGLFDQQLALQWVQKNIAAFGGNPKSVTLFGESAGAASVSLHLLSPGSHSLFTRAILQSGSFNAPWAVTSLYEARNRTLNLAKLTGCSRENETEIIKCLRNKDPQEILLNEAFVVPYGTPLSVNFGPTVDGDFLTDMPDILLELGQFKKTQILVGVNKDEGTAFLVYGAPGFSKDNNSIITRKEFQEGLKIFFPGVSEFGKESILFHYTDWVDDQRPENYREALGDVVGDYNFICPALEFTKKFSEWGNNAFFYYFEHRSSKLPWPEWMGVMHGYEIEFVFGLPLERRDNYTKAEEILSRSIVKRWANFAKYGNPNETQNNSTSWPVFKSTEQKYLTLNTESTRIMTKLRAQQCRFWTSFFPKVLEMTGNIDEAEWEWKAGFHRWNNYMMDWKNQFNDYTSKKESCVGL
Sequence of Acetylcholinesterase (P22303 whole entry): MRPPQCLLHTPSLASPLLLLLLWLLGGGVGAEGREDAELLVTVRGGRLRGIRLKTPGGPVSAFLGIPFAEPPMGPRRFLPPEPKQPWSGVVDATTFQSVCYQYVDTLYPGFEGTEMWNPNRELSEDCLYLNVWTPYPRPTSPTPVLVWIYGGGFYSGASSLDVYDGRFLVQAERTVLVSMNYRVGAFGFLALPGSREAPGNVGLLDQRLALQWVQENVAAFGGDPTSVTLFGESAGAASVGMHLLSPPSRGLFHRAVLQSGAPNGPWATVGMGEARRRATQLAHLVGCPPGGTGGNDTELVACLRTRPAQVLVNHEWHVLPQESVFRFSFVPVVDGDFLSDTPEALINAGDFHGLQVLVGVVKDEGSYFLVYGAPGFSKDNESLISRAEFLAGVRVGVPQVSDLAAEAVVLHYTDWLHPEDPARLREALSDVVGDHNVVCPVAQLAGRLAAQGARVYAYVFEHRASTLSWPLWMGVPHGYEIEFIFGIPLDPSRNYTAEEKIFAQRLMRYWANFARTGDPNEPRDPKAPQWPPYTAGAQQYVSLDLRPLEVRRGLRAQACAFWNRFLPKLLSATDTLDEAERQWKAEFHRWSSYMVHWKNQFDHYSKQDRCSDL

By Ki is commonly meant a dissociation constant, usually derived from enzyme kinetics or from competition with a known ligand. A high value points to weaker binding. Consider `C/C=C1\C2C=C(C)C[C@]1(N)CC(NCCCCCCCNc1c3c(nc4ccccc14)CCCC3)C2` (stereo not given in full), for which the Ki at Cholinesterase is 0.0308 µM; on Acetylcholinesterase it was 0.0157 µM. Take `C/C=C1\C2C=C(C)C[C@]1(N)CC(NCCCCCCCNc1c3c(nc4ccccc14)CCCC3)C2(C)C` (stereo not given in full): the Ki on Cholinesterase was determined as 0.0208 µM; at Acetylcholinesterase, 0.0165 µM. `C/C=C1\[C@H]2C=C(C)C[C@]1(N)c1ccc(=O)[nH]c1C2` [HUPERZINE A] showed a Ki at Cholinesterase greater than 1 µM.
